Source: patent publication EP0748792A1 (priority 1994, dated 1995)

Legend:
[1] = tested on: total acetylating capability of the organism; experiment: Acetylating capability of white rats (sodium sulfacyl acetylation, arylamine content in urine); assay type: in vivo; conditions: agent 20 mg/kg i.p. 4 days; for Acetylating properties of the organism: Na sulfacyl acetylating in the organism of rats; for Sulfacyl isolation M ± m In acetylated form / Sulfacyl isolation M ± m In free form / Sulfacyl isolation M ± m Total: Na sulfacyl excretion in urine; for % of excretion from the dose In acetylated form / % of excretion from the dose In free form / Concentration in urine In acetylated form / Concentration in urine In free form: Na sulfacyl; for Excretion % from the dose: total Na sulfacyl excretion in urine
Method: It is known that intact animals, receiving sufficient doses of pantothenic acid, have accelerated reactions of arylamine biotransformation. Therefore, there is the possibility to regulate the acetylating processes in the bodies of people and animals. In the examples given below the total acetylating capability of the organism was assessed using the method of quantitative determination of the arylamine content in the urine examined.
As a subject for acetylating, aromatic amines were chosen, as their usage makes it possible to assess both the activity of N-acetylamine transferase and (indirectly) the content of acetyl CoA.
As a subject for examination sodium sulfacyl was chosen. […] 14 animals were included in each group. The examined agent was injected intraperitoneally at a dose of 20 mg/kg. On the 4th day, 4 hours after the last injection of the examined agent, the sodium sulfacyl solution in a dose of 20 mg/kg was injected intraperitoneally. All the rats were separated into exchangeable cages for urine gathering. The collected data were compared with the control groups of animals (group I - only sodium sulfacyl in a dose of 20 mg/kg, and group II - calcium pantothenate).

[2] = tested on: non-linear white rats; experiment: Subchronic toxicity in rats (2 months); assay type: in vivo
Method: 70 non-linear white rats of both sexes with average stated mass of 72 ± 5 g, divided into 7 groups, were used in the experiment. The first three groups of animals received ketopantothenate in 0.2 ml of distilled water in doses: 13.2 mg/kg (therapeutic dose of calcium D-pantothenate), 132 and 264 mg/kg (doses 10 and 20 times larger than the therapeutic dose) internally every day during the experiment. The next three groups of animals received the same doses of calcium D-pantothenate under the same conditions for comparison. The 7th group was the control one and included intact animals. The weighing of the animals was carried out once a week. Permanent observation on development and state of rats was carried out. […] The growth of the mass of the rats receiving ketopantothenate in different doses was 3.7 - 6.0 % higher than the growth of the mass of rats from the control group (correspondingly to doses). The growth of the mass of the rats receiving calcium D-pantothenate in comparison with the control group was approximately the same.
When the experiment was over the animals were slaughtering and the internal organs were examined visually.

[3] = tested on: white non-linear mice; conditions: administered perorally; species not given; cited from earlier work
[4] = tested on: white non-linear mice; experiment: Acute toxicity in mice; assay type: in vivo
Method: The animals were distributed into 7 groups, 6 animals in each group.
The mice were under observation for 14 days. Starting from the dose of 6g/kg in the first 2 hours after the agent administration the intoxication symptoms were observed: inertia, quickened breathing. Then these symptoms passed without consequences. The mice in all groups were practically healthy, no deviations in the state and behavior of the animals were observed.

Compound: CC(C)(CO)[C@@H](O)C(=O)NCCC(=O)O [Ca D-pantothenate, calcium D-pantothenate, reference compound]
- Acetylating properties of the organism [1]: 24.0
- Sulfacyl isolation M ± m In acetylated form ([1]; sulfacyl 20 mg/kg i.p.): 0.67 ± 0.04
- Sulfacyl isolation M ± m In free form ([1]; sulfacyl 20 mg/kg i.p.): 2.12 ± 0.09
- Sulfacyl isolation M ± m Total ([1]; sulfacyl 20 mg/kg i.p.): 2.79 ± 0.19
- % of excretion from the dose In acetylated form ([1]; rats): 22.3 ± 1.8%
- % of excretion from the dose In free form ([1]; rats): 70.7 ± 6.0%
- Concentration in urine In acetylated form ([1]; rats): 0.172 mg/mL
- Concentration in urine In free form ([1]; rats): 0.54 mg/mL
- Excretion % from the dose [1]: 93.0%
- Mass Final ([2]; rat, in vivo, 13.2 mg/kg): 187.5 ± 18.4
- Mass growth during the experiment ([2]; rat, in vivo, 13.2 mg/kg): 117.2 ± 7.7 g
- Mass growth during the experiment % to the control ([2]; rat, in vivo, 13.2 mg/kg): 104.2%
- Mass Final ([2]; rat, in vivo, 132 mg/kg): 193.0 ± 14.6
- Mass growth during the experiment ([2]; rat, in vivo, 132 mg/kg): 118.7 ± 10.4 g
- Mass growth during the experiment % to the control ([2]; rat, in vivo, 132 mg/kg): 105.3%
- Mass Final ([2]; rat, in vivo, 264 mg/kg): 186.1 ± 16.2
- Mass growth during the experiment ([2]; rat, in vivo, 264 mg/kg): 114.9 ± 8.8 g
- Mass growth during the experiment % to the control ([2]; rat, in vivo, 264 mg/kg): 102.2%
- LD50 [3]: 5920 mg/kg

Compound: calcium ketopantothenate [Ca ketopantothenate]
- dose from which intoxication symptoms (inertia, quickened breathing) were observed ([4]; mice, single internal dose, first 2 hours after administration, symptoms passed without consequences): ≥ 6000 mg/kg
- dose that was not toxic ([4]; mouse, in vivo, po, 336 h): 8000 mg/kg
- Acetylating properties of the organism [1]: 25.9
- Sulfacyl isolation M ± m In acetylated form ([1]; sulfacyl 20 mg/kg i.p.): 0.73 ± 0.05
- Sulfacyl isolation M ± m In free form ([1]; sulfacyl 20 mg/kg i.p.): 2.09 ± 0.17
- Sulfacyl isolation M ± m Total ([1]; sulfacyl 20 mg/kg i.p.): 2.82 ± 0.19
- % of excretion from the dose In acetylated form ([1]; rats): 23.1 ± 1.8%
- % of excretion from the dose In free form ([1]; rats): 66.1 ± 3.2%
- Concentration in urine In acetylated form ([1]; rats): 0.221 mg/mL
- Concentration in urine In free form ([1]; rats): 0.63 mg/mL
- total acetylating capability of the organism of white rats (N-acetylation of aromatic amines) ([1]; rats): increased significantly
- excretion of acetylated product in comparison with the control group ([1]; rats, sulfacyl 20 mg/kg i.p.): tripled
- excretion of free product, lower than the control group ([1]; rats, sulfacyl 20 mg/kg i.p.): 10%
- Excretion % from the dose [1]: 89.2%
- irritation of internal organs (visual examination) ([2]; rat, in vivo): No irritation
- Mass Final ([2]; rat, in vivo, 13.2 mg/kg): 187.6 ± 12.5
- Mass growth during the experiment ([2]; rat, in vivo, 13.2 mg/kg): 116.6 ± 8.2 g
- Mass growth during the experiment % to the control ([2]; rat, in vivo, 13.2 mg/kg): 103.7%
- Mass Final ([2]; rat, in vivo, 132 mg/kg): 193.6 ± 17.3
- Mass growth during the experiment ([2]; rat, in vivo, 132 mg/kg): 119.3 ± 10.3 g
- Mass growth during the experiment % to the control ([2]; rat, in vivo, 132 mg/kg): 106.0%
- Mass Final ([2]; rat, in vivo, 264 mg/kg): 190.1 ± 21.0
- Mass growth during the experiment ([2]; rat, in vivo, 264 mg/kg): 117.6 ± 11.0 g
- Mass growth during the experiment % to the control ([2]; rat, in vivo, 264 mg/kg): 104.5%
- toxicity when used over a prolonged period ([2]; rats, 13.2, 132 and 264 mg/kg internally every day, 2 months): not toxic
